{"source": "patent US20260265233A1", "about": "“BENZOTHIOPHENE DERIVATIVES AS RXFP1 AGONISTS” (BRISTOL-MYERS SQUIBB COMPANY, priority 2021, published 2026)", "target": "T1, human RXFP1 (Homo sapiens, UniProt Q9HBX9)", "T1 construct": "expressed in transfected cells", "T1 sequence (Q9HBX9 1-757)": "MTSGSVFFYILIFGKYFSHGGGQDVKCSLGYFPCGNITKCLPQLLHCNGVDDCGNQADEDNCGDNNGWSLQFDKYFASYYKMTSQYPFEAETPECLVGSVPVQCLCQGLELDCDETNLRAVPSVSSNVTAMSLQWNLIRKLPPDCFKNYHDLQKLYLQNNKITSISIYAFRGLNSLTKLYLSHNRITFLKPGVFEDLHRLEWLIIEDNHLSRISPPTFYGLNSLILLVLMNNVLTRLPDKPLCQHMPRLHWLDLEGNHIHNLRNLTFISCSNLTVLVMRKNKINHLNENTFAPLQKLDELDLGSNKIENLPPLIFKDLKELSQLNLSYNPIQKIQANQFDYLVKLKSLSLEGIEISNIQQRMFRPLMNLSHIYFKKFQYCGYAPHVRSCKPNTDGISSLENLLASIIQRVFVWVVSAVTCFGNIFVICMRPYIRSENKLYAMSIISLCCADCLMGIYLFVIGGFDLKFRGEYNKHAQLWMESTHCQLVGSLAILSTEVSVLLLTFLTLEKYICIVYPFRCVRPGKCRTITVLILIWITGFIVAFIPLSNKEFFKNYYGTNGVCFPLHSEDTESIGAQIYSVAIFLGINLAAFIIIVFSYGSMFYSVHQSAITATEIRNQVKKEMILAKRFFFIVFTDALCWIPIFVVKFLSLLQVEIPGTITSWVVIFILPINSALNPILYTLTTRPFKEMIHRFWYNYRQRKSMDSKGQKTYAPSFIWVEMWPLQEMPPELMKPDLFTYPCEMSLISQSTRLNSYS", "assay": "hRXFP1 HEK293 cAMP assay (HTRF)", "assay_type": "cell-based", "conditions": "HEK293 cells stably expressing human RXFP1; 30 min at rt; intracellular cAMP by HTRF", "outline": "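HEK293 cells stably expressing human RXFP1 treated 30 min at rt with compound (0.010 nM to 50 μM, 2% DMSO) in HBSS/HEPES buffer with 0.5 mM IBMX. Intracellular cAMP measured by HTRF (665/590 nm ratio) against a cAMP standard curve; potency fitted by 4-parameter logistic.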"}
{"molecule": "COc1ccc(-c2cc(CNS(C)(=O)=O)ccc2F)cc1C(=O)Nc1c(C(=O)Nc2ccc(F)c(C(F)(F)F)c2)sc2cc(C(F)(F)F)ccc12", "note": "[Example 17, N-(4-fluoro-3-(trifluoromethyl)phenyl)-3-(2′-fluoro-4-methoxy-5′-(methylsulfonamidomethyl)-[1,1′-biphenyl]-3-carboxamido)-6-(trifluoromethyl)benzo[b]thiophene-2-carboxamide]", "values": [{"measurement": "EC50", "value": 10.3, "unit": "nM"}]}
{"molecule": "COc1ccc(-c2cc(CNC(=O)C3CCC3)ccc2F)cc1C(=O)Nc1c(C(=O)Nc2ccc(F)c(C(F)(F)F)c2)sc2cc(C(F)(F)F)ccc12", "note": "[Example 18, 3-(5′-(cyclobutanecarboxamidomethyl)-2′-fluoro-4-methoxy-[1,1′-biphenyl]-3-carboxamido)-N-(4-fluoro-3-(trifluoromethyl)phenyl)-6-(trifluoromethyl)benzo[b]thiophene-2-carboxamide]", "values": [{"measurement": "EC50", "value": 311, "unit": "nM"}]}
{"molecule": "COc1ccc(-c2cc(CNCC(C)C)ccc2F)cc1C(=O)Nc1c(C(=O)Nc2ccc(F)c(C(F)(F)F)c2)sc2cc(C(F)(F)F)ccc12", "note": "[Example 19, N-(4-fluoro-3-(trifluoromethyl)phenyl)-3-(2′-fluoro-5′-((isobutylamino)methyl)-4-methoxy-[1,1′-biphenyl]-3-carboxamido)-6-(trifluoromethyl) benzo[b]thiophene-2-carboxamide]", "values": [{"measurement": "EC50", "value": 1010, "unit": "nM"}]}
{"molecule": "COc1ccc(-c2cc([C@H](OC(=O)NC3CCC3)C(F)(F)F)ccc2F)cc1C(=O)Nc1c(C(=O)Nc2ccc(F)c(C(F)(F)F)c2)sc2cc(C(F)(F)F)ccc12", "note": "[Example 22, (S)-2,2,2-trifluoro-1-(6-fluoro-3′-((2-((4-fluoro-3-(trifluoromethyl)phenyl)carbamoyl)-6-(trifluoromethyl)benzo[b]thiophen-3-yl)carbamoyl)-4′-methoxy-[1, 1′-biphenyl]-3-yl) ethyl cyclobutylcarbamate]", "values": [{"measurement": "EC50", "value": 0.5, "unit": "nM"}]}
{"molecule": "COc1ccc(C(=O)N2CC(C)(C)C2)cc1C(=O)Nc1c(C(=O)Nc2ccc(F)c(C(F)(F)F)c2)sc2cc(C(F)(F)F)ccc12", "note": "[Example 27, 3-(5-(3,3-dimethylazetidine-1-carbonyl)-2-methoxybenzamido)-N-(4-fluoro-3-(trifluoromethyl)phenyl)-6-(trifluoromethyl) benzo[b]thiophene-2-carboxamide]", "values": [{"measurement": "EC50", "value": 1720, "unit": "nM"}]}
{"molecule": "COc1cc(F)c(C(=O)N2CC(S(C)(=O)=O)C2)cc1C(=O)Nc1c(C(=O)Nc2ccc(F)c(C(F)(F)F)c2)sc2cc(C(F)(F)F)ccc12", "note": "[Example 28, 3-(4-fluoro-2-methoxy-5-(3-(methylsulfonyl)azetidine-1-carbonyl)benzamido)-N-(4-fluoro-3-(trifluoromethyl)phenyl)-6-(trifluoromethyl)benzo[b]thiophene-2-carboxamide]", "values": [{"measurement": "EC50", "value": 48.7, "unit": "nM"}]}
{"molecule": "COc1ccc(C(=O)N2CC3(C2)CS(=O)(=O)C3)cc1C(=O)Nc1c(C(=O)Nc2ccc(F)c(C(F)(F)F)c2)sc2cc(C3CC3)ncc12", "note": "[Example 29, 6-cyclopropyl-3-(5-(2,2-dioxido-2-thia-6-azaspiro [3.3]heptane-6-carbonyl)-2-methoxybenzamido)-N-(4-fluoro-3-(trifluoromethyl)phenyl) thieno [3,2-c]pyridine-2-carboxamide]", "values": [{"measurement": "EC50", "value": 1340, "unit": "nM"}]}
{"molecule": "COc1ccc(S(=O)(=O)N2CCC[C@@H](N)C2)cc1C(=O)Nc1c(C(=O)Nc2ccc(F)c(C(F)(F)F)c2)sc2cc(C(F)(F)F)ccc12", "note": "[Example 30, (R)-3-(5-((3-aminopiperidin-1-yl)sulfonyl)-2-methoxybenzamido)-N-(4-fluoro-3-(trifluoromethyl)phenyl)-6-(trifluoromethyl) benzo[b]thiophene-2-carboxamide]", "values": [{"measurement": "EC50", "value": 2540, "unit": "nM"}]}
{"molecule": "COc1ccc(S(=O)(=O)N2CCC[C@@H](NCC(N)=O)C2)cc1C(=O)Nc1c(C(=O)Nc2ccc(F)c(C(F)(F)F)c2)sc2cc(C(F)(F)F)ccc12", "note": "[Example 31]", "values": [{"measurement": "EC50", "value": 3280, "unit": "nM"}]}
{"molecule": "COc1ccc(C2CCCNCC2)cc1C(=O)Nc1c(C(=O)Nc2ccc(F)c(C(F)(F)F)c2)sc2cc(C(F)(F)F)ccc12", "note": "(stereo not drawn) [Example 39, 3-(5-(azepan-4-yl)-2-methoxybenzamido)-N-(4-fluoro-3-(trifluoromethyl)phenyl)-6-(trifluoromethyl)benzo[b]thiophene-2-carboxamide]", "values": [{"measurement": "EC50", "value": 2800, "unit": "nM"}]}
{"molecule": "COc1ccc(C23CCC(C(C)(C)O)(CC2)CC3)cc1C(=O)Nc1c(C(=O)Nc2ccc(F)c(C(F)(F)F)c2)sc2cc(C(F)(F)F)ccc12", "note": "[Example 40, N-(4-fluoro-3-(trifluoromethyl)phenyl)-3-(5-(4-(2-hydroxypropan-2-yl)bicyclo [2.2.2]octan-1-yl)-2-methoxybenzamido)-6-(trifluoromethyl) benzo[b]thiophene-2-carboxamide]", "values": [{"measurement": "EC50", "value": 220, "unit": "nM"}]}
{"molecule": "COc1ccc(C#CCO)cc1C(=O)Nc1c(C(=O)Nc2ccc(F)c(C(F)(F)F)c2)sc2cc(C(F)(F)F)ccc12", "note": "[Example 42, N-(4-fluoro-3-(trifluoromethyl)phenyl)-3-(5-(3-hydroxyprop-1-yn-1-yl)-2-methoxybenzamido)-6-(trifluoromethyl)benzo[b]thiophene-2-carboxamide]", "values": [{"measurement": "EC50", "value": 467, "unit": "nM"}]}
{"molecule": "COc1ccc(/C=C\\C(=O)O)cc1C(=O)Nc1c(C(=O)Nc2ccc(F)c(C(F)(F)F)c2)sc2cc(C(F)(F)F)ccc12", "note": "[Example 45, (Z)-3-(3-((2-((4-fluoro-3-(trifluoromethyl)phenyl)carbamoyl)-6-(trifluoromethyl)benzo[b]thiophen-3-yl)carbamoyl)-4-methoxyphenyl) acrylic acid]", "values": [{"measurement": "EC50", "value": 975, "unit": "nM"}]}
{"molecule": "COc1ccc(C2CC2C(=O)O)cc1C(=O)Nc1c(C(=O)Nc2ccc(F)c(C(F)(F)F)c2)sc2cc(C(F)(F)F)ccc12", "note": "(stereo not drawn) [Example 46, 2-(3-((2-((4-fluoro-3-(trifluoromethyl)phenyl)carbamoyl)-6-(trifluoromethyl)benzo[b]thiophen-3-yl)carbamoyl)-4-methoxyphenyl) cyclopropane-1-carboxylic acid]", "values": [{"measurement": "EC50", "value": 295, "unit": "nM"}]}
{"molecule": "COc1ccc(C2CC2CO)cc1C(=O)Nc1c(C(=O)Nc2ccc(F)c(C(F)(F)F)c2)sc2cc(C(F)(F)F)ccc12", "note": "(stereo not drawn) [Example 49, N-(4-fluoro-3-(trifluoromethyl)phenyl)-3-(5-(2-(hydroxymethyl)cyclopropyl)-2-methoxybenzamido)-6-(trifluoromethyl) benzo[b]thiophene-2-carboxamide]", "values": [{"measurement": "EC50", "value": 617, "unit": "nM"}]}
{"molecule": "COc1ccc(C2=NOC3CS(=O)(=O)CC23)cc1C(=O)Nc1c(C(=O)Nc2ccc(F)c(C(F)(F)F)c2)sc2cc(C(F)(F)F)ccc12", "note": "(stereo not drawn) [Example 52, 3-(5-(5,5-dioxido-3a, 4,6,6a-tetrahydrothieno[3,4-d]isoxazol-3-yl)-2-methoxybenzamido)-N-(4-fluoro-3-(trifluoromethyl)phenyl)-6-(trifluoromethyl)benzo[b]thiophene-2-carboxamide]", "values": [{"measurement": "EC50", "value": 166, "unit": "nM"}]}
{"molecule": "COC(=O)C1CC(c2ccc(OC)c(C(=O)Nc3c(C(=O)Nc4ccc(F)c(C(F)(F)F)c4)sc4cc(C(F)(F)F)ccc34)c2)=NO1", "note": "(stereo not drawn) [Example 57, methyl 3-(3-((2-((4-fluoro-3-(trifluoromethyl)phenyl)carbamoyl)-6-(trifluoromethyl)benzo[b]thiophen-3-yl)carbamoyl)-4-methoxyphenyl)-4,5-dihydroisoxazole-5-carboxylate]", "values": [{"measurement": "EC50", "value": 636, "unit": "nM"}]}
{"molecule": "COc1ccc(C2=NCC3(CCCCC3)O2)cc1C(=O)Nc1c(C(=O)Nc2ccc(F)c(C(F)(F)F)c2)sc2cc(C(F)(F)F)ccc12", "note": "[Example 58, N-(4-fluoro-3-(trifluoromethyl)phenyl)-3-(2-methoxy-5-(1-oxa-3-azaspiro[4.5]dec-2-en-2-yl)benzamido)-6-(trifluoromethyl)benzo[b]thiophene-2-carboxamide]", "values": [{"measurement": "EC50", "value": 612, "unit": "nM"}]}
{"molecule": "COc1ccc(-c2noc(C(C)(C)O)n2)cc1C(=O)Nc1c(C(=O)Nc2ccc(F)c(C(F)(F)F)c2)sc2cc(C(F)(F)F)ccc12", "note": "[Example 59, N-(4-fluoro-3-(trifluoromethyl)phenyl)-3-(5-(5-(2-hydroxypropan-2-yl)-1,2,4-oxadiazol-3-yl)-2-methoxybenzamido)-6-(trifluoromethyl) benzo[b]thiophene-2-carboxamide]", "values": [{"measurement": "EC50", "value": 216, "unit": "nM"}]}
{"molecule": "COc1ccc(N2CCC(NCCO)C2)cc1C(=O)Nc1c(C(=O)Nc2ccc(F)c(C(F)(F)F)c2)sc2cc(C(F)(F)F)ccc12", "note": "(stereo not drawn) [Example 66, N-(4-fluoro-3-(trifluoromethyl)phenyl)-3-(5-(3-((2-hydroxyethyl)amino)pyrrolidin-1-yl)-2-methoxy-benzamido)-6-(trifluoromethyl) benzo[b] thiophene-2-carboxamide]", "values": [{"measurement": "EC50", "value": 897, "unit": "nM"}]}
{"molecule": "COc1ccc(N2CCC(NCCS(C)(=O)=O)C2)cc1C(=O)Nc1c(C(=O)Nc2ccc(F)c(C(F)(F)F)c2)sc2cc(C(F)(F)F)ccc12", "note": "(stereo not drawn) [Example 67, N-(4-fluoro-3-(trifluoromethyl)phenyl)-3-(2-methoxy-5-(3-((2-(methylsulfonyl)ethyl)amino)pyrrolidin-1-yl)benzamido)-6-(trifluoromethyl) benzo[b] thiophene-2-carboxamide]", "values": [{"measurement": "EC50", "value": 1290, "unit": "nM"}]}
